Assay results as given in patent US20050196492A1, “Food preservative method and system using vanillin and constituent having isothiocynate compound” (priority 2004, published 2005).

Assays:
[1] = test system: Penicillium notatum; assay: Antimicrobial properties of VOM (Wasaouro vapor) alone in MRE package, growth/no growth; assay type: cell-based; details: AIT by gas chromatography at time zero, 25° C., seven days
Procedure: (§1) Similarly, the antimicrobial properties of VOM (without vanillin) were evaluated against the four organisms shown in Table I. In order to evaluate the antimicrobial properties of VOM against each of these foregoing organisms, the modeling system employed several MRE packages. Each MRE package contained two Petri dishes. One Petri dish, 100 mm×15 mm, contained a medium and a selected organism. […] The cellulose filter pad for each 60 mm×15 mm Petri dish received a measured quantity of Wasaouro®. A stock solution of Wasaouro® powder was made and volumes of 100, 200, 400, 600, 800 and 1000 μl were added respectively to the filter pads of the 60 mm×15 mm Petri dishes for each group. […] The amount of the volatile active component of Wasaouro®, allyl isothiocyanate, was determined using gas chromatography. Each Petri dish in the first group was inoculated with Penicillium notatum, inoculum 10^5 spores/ml. Each Petri dish in the first group was then uncovered and placed in its own MRE impermeable laminated package. Similarly, each Petri dish in the second group of Petri dishes was inoculated with Rhizopus stolonifer, inoculum 10^5 spores/ml. Each Petri dish in the second group was then uncovered and then placed in its own MRE impermeable laminated package. In a similar manner, each Petri dish in the third group of Petri dishes was inoculated with Aspergillus niger, inoculum 10^5 spores/ml. Each Petri dish in the third group was then uncovered and then placed in its own MRE impermeable laminated package. Similarly, each Petri dish in the fourth group of Petri dishes was inoculated with Saccharomycopsis fibuligera, inoculum 10^5 spores/ml. Each Petri dish in the fourth group was then uncovered and then placed in its own MRE impermeable laminated package. All MRE packages (for all groups of Petri dishes) were then incubated at 25° C. for seven days. The determination of effectiveness of VOM as an antimicrobial agent was based on a growth or no growth basis. Petri dishes with no growth were left out for seven days after removal from the MRE package to ensure that there was no additional growth. For each experiment, a set of control MRE packages were made with the various concentrations of Wasaouro®. These control packages were used to extrapolate the relative amounts of allyl isothiocyanate in the experimental MRE packages at time zero.

[2] = test system: Aspergillus niger; assay: as above; assay type: cell-based; details: AIT by gas chromatography at time zero, 25° C., seven days
Procedure: as §1

[3] = test system: Saccharomycopsis fibuligera; assay: as above; assay type: cell-based; details: AIT by gas chromatography at time zero, 25° C., seven days
Procedure: as §1

[4] = test system: Rhizopus stolonifer; assay: as above; assay type: cell-based
Procedure: as §1

[5] = test system: Rhizopusus stolonifer; assay: Combination of vanillin and VOM (AIT) in MRE package, growth grid; assay type: cell-based, Rhizopus stolonifer; details: Vanillin 0 ppm
Procedure: (§2) Four bread spoilage organisms were used in determining the inhibition properties of vanillin and VOM: (1) Penicillium notatum, (2) Rhizopus stolonifer, (3) Aspergillus niger and (4) Saccharomycopsis fibuligera. For purposes of this analysis, Wasaouro® was used as the source of VOM. The antimicrobial tests were conducted in MRE air-impermeable laminated packages without bread. Petri dishes containing the appropriate growth medium were inoculated with a selected spoilage organism and then sealed with various concentrations of vanillin and/or Wasaouro®. The vanillin was incorporated directly into the growth medium while the Wasaouro® was kept separate from the organism within the MRE package. […] Wasaouro® was effective at low headspace concentrations (e.g. 17 μg/L (AIT)) with the exception of Rhizopus stolonifer which is resistant to AIT even at much higher concentrations.

[6] = test system: Rhizopusus stolonifer and Aspergillus niger; assay: Combination of vanillin and VOM (AIT) in MRE package, growth grid, both fungi; assay type: cell-based, Rhizopus stolonifer and Aspergillus niger; details: Vanillin 0 ppm
Procedure: as §2

[7] = test system: Aspergillus niger; assay: Combination of vanillin and VOM (AIT) in MRE package, growth grid; assay type: cell-based; details: for growth of Aspergillus niger: Vanillin 0 ppm
Procedure: as §2
Next, both antimicrobial agents were tested against two of the more resistant organisms, Rhizopus stolonifer and Aspergillus niger.

## C=CCN=C=S [AIT, allyl isothiocyanate]
[1]
  Effective Amount Of Allyl Isothiocyanate: ˜17 ppm
[2]
  Effective Amount Of Allyl Isothiocyanate: ˜17 ppm
[3]
  Effective Amount Of Allyl Isothiocyanate: ˜8 ppm
[4]; Wasaouro vapor in MRE package, AIT by gas chromatography at time zero, 25° C., seven days
  Effective Amount Of Allyl Isothiocyanate: >470 ppm
[4]; even at much higher concentrations than 17 μg/L
  susceptibility of Rhizopus stolonifer to AIT: resistant
[5]; AIT 55 ug/L
  growth of Rhizopusus stolonifer: Growth
[5]; AIT 145 ug/L
  growth of Rhizopusus stolonifer: Growth
[5]; AIT 150 ug/L
  growth of Rhizopusus stolonifer: Growth
[5]; AIT 420 ug/L
  growth of Rhizopusus stolonifer: Growth
[5]; AIT 465 ug/L
  growth of Rhizopusus stolonifer: Growth
[5]; AIT 905 ug/L
  growth of Rhizopusus stolonifer: Growth
[6]; AIT 55 ug/L
  growth of Rhizopusus stolonifer and Aspergillus niger: Growth
[6]; AIT 145 ug/L
  growth of Rhizopusus stolonifer and Aspergillus niger: Growth
[6]; AIT 150 ug/L
  growth of Rhizopusus stolonifer and Aspergillus niger: Growth
[6]; AIT 420 ug/L
  growth of Rhizopusus stolonifer and Aspergillus niger: Growth
[6]; AIT 465 ug/L
  growth of Rhizopusus stolonifer and Aspergillus niger: Growth
[6]; AIT 905 ug/L
  growth of Rhizopusus stolonifer and Aspergillus niger: Growth
[7]
  sensitivity of Aspergillus niger to AIT: very sensitive
[7]; AIT 55 ug/L
  growth of Aspergillus niger: Growth
[7]; AIT 145 ug/L
  growth of Aspergillus niger: N/G
[7]; AIT 150 ug/L
  growth of Aspergillus niger: Growth
[7]; AIT 420 ug/L
  growth of Aspergillus niger: N/G
[7]; AIT 465 ug/L
  growth of Aspergillus niger: N/G
[7]; AIT 905 ug/L
  growth of Aspergillus niger: N/G
